“Also recorded” adds a separate entry of the source. Like-named read-outs stand apart in the source and are kept apart here.

Series [1] relates to blood neutrophils. Particulars: rabbit, in vivo.
The test system of series [2] is blood neutrophils. Particulars: mouse, in vivo.
Series [3] has as its system flank GL261 tumor. Conditions: in vivo.
In series [4] the test system is VX2 brain tumor. Particulars: rabbit, in vivo.

Regarding `NC(=O)NO` [HU, hydroxyurea], in series [1], the lymphocyte counts entry is “not significantly affected”, the “other blood cell types” value is “has not affected other blood cell types significantly” and the “time to neutrophil count rebound after spore injection” value is reported as “at least 3 days”. For the same molecule, in series [2], the blood neutrophil count result was “greatly suppressed the neutrophil levels; also recorded: drastically reduced the neutrophil counts” and the “other blood cell counts” value was “also affected in various degrees”. In series [2] (ip), the lymphocyte count result is given as “significant drop of lymphocytes”. In addition, the “mice died of treatment-related (immediate) toxicity” value in series [3] (female, C57BL6, mouse) is reported as 2/12. In series [3] (mouse), the “mice cured (total tumor clearance, absence of any tumor after 3 weeks)” value is given as 9/12; the “mice with partial tumor clearance (initial reduction, later regrowth)” value is listed as 1/12; the “therapeutic effect of agent alone” value is recorded as “did not show any noticeable therapeutic effects”. For the same molecule, in series [4], the “deaths from tumor regrowth” value is listed as “one”, the “intratumoral accumulation of neutrophils” value is “effective in suppressing the intratumoral accumulation of neutrophils” and the long-term survivors came out at 8.

Regarding `O=P1(N(CCCl)CCCl)NCCCO1` (stereo not drawn) [CPA, cyclophosphamide], the blood neutrophil count entry in series [1] was “significant neutrophil suppression”. Moreover, in series [4], the long-term survivors result was “without any long-term survivor”.
